Measured values reported in patent publication US11433090B2, “mTOR-inhibitor-containing medicine for treating or preventing ophthalmic symptoms, disorders, or diseases, and application thereof” (The Doshisha, priority 2017, dated 2022).

Assays:
[1] = system: cleaved caspase 3; test: Western blot of cleaved caspase 3 after TGF-β2 stimulation in iFECD; format: cell-based, human; details: 3 pmol mTOR siRNA, then TGF-β2 10 ng/ml 24 h, FIG. 8
Method: (§1) The medium was removed from a culture dish in which iFECDs were being cultured, and the cells were supplemented with 1×PBS (−) that was preheated to 37° C., and were washed. This was repeated twice. The cells were supplemented again with 1×PBS (−) and incubated for 3 minutes at 37° C. (5% CO2). After removing the PBS (−), the cells were supplemented with 0.05% Trypsin-EDTA (Nacalai Tesque, 32778-34) and incubated for 5 minutes at 37° C. (5% CO2). The cells were then suspended in a medium, and collected by centrifugation at 1500 rpm for 3 minutes. DMEM (Nacalai Tesque, 08456-36)+10% FBS (Biowest, S1820-500)+1% P/S (Nacalai Tesque, 26252-94) was used as the medium.
iFECDs were seeded on a 12-well plate at a ratio of 1×10^5 cells per well and cultured for 24 hours at 37° C. (5% CO2) (DMEM+10% FBS+1% P/S was used as the medium). After 24 hours, the medium was removed. Rapamycin was added to culture the cells for 24 hours. (DMEM+2% FBS+1% P/S was used as the medium). After 24 hours, the medium was removed. A medium containing 10 ng/ml of Recombinant Human TGF-β2 (Wako, 200-19911) and rapamycin was added to culture the cells for 24 hours. […]
8 μg of the extracted protein was separated by SDS-PAGE and transferred onto a nitrocellulose membrane. […] The detected band strength was analyzed with a lumino image analyzer LAS-4000 mini (Fuji Film) and ImageQuant™ software (GE Healthcare). […]

[2] = system: iFECD; test: Cell damage induced by TGF-β2 in iFECD, phase contrast microscopy; format: cell-based, human; details: 3 pmol mTOR siRNA with Lipofectamine, then TGF-β2 10 ng/ml 24 h, FIG. 7
Method: as §1
iFECDs were seeded on a 12-well plate at a ratio of 1×10^5 cells per well and cultured for 24 hours at 37° C. (5% CO2) (DMEM+10% FBS+1% P/S was used as the medium). After 24 hours, the medium was removed. Rapamycin was added to culture the cells for 24 hours. (DMEM+2% FBS+1% P/S was used as the medium). After 24 hours, the medium was removed. A medium containing 10 ng/ml of Recombinant Human TGF-β2 (Wako, 200-19911) and rapamycin was added to culture the cells for 24 hours. (DMEM+2% FBS+1% P/S was used as the medium). After 24 hours, the cell morphology and apoptosis were observed under a phase contrast microscope.
iFECDs were seeded on a 12-well plate at a ratio of 3×10^4 cells per well and cultured for 24 hours at 37° C. […]

mTOR siRNA: siRNA against mTOR gene (Ambion, AS026M0L); sense strand SEQ ID NO: 1, antisense strand SEQ ID NO: 2 (sense CAUUCGCAUUCAGUCCAUATT; antisense UAUGGACUGAAUGCGAAUGAT; chemistry not given here)
activated form of cleaved caspase-3 (about 17 kDa), western blot [1]: hardly observed | damage to corneal endothelial cells induced by Recombinant Human TGF-β2 [2]: suppressed
